molecular target: KRAS G12C and cRAF (Ras-binding domain) interaction (Homo sapiens (Human), UniProt P01116, C118S/C51S/C80L/G12C); assay: Inhibition of KRAS G12C and cRAF binding (AlphaScreen); details: GMPPNP-loaded KRAS G12C, 19-20 hours incubation with compound; read-out: IC50 (Inhibition of KRAS G12C and cRAF Binding)
Experimental: Compounds were diluted in 100% DMSO and each compound concentration was spotted at 200 nl/well onto low volume, white 384 well plates. […] Plates were incubated for 19-20 hours. A mixture of RBD and the AlphaScreen streptavidin donor and glutathione acceptor beads diluted in 25 mM Hepes, pH 7.4, 150 mM NaCl, 5 mM MgCl2, 0.01% TritonX-100 and 2% DMSO was then added at 10 ul/well and incubated for 60-90 minutes before the samples were read for emission at 570 nm after excitation of the donor beads at 680 nm. All incubations were performed at room temperature. […] IC50s were determined using nonlinear regression fit of [inhibitor]vs. response (4 parameters). […]

Sequence of KRAS G12C and cRAF (Ras-binding domain) interaction (P01116 other isoform, or with tags, fused parts or gaps G12C/C51S/C80L/C118S): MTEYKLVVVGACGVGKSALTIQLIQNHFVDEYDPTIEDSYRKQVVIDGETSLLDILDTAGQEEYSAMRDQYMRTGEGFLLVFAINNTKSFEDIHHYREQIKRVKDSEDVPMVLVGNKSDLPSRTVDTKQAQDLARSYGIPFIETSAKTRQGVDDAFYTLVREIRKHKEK

`COC(=O)/C=C/C(=O)N1CC[C@@H](N(C)c2nc(OC[C@@H]3CCCN3C)nc3c2CCN(c2cccc4ccc(F)c(Cl)c24)C3)C1` [Example 3, methyl(E)-4-((R)-3-((7-(8-chloro-7-fluoronaphthalen-1-yl)-2-(((S)-1-methylpyrrolidin-2-yl)methoxy)-5,6,7,8-tetrahydropyrido[3,4-d]pyrimidin-4-yl)(methyl)amino)pyrrolidin-1-yl)-4-oxobut-2-enoate] and `COC(=O)/C=C/C(=O)NCCN(C)c1nc(OC[C@@H]2CCCN2C)nc2c1CCN(c1cccc3ccc(F)c(Cl)c13)C2` [Example 1, methyl(S,E)-4-((2-((7-(8-chloro-7-fluoronaphthalen-1-yl)-2-((1-methylpyrrolidin-2-yl)methoxy)-5,6,7,8-tetrahydropyrido[3,4-d]pyrimidin-4-yl)(methyl)amino)ethyl)amino)-4-oxobut-2-enoate] fall in the same range of IC50: 10 to 100 nM for the first, 10 to 100 nM for the second.

`CN(c1nc(OC[C@@]23CCCN2C[C@H](F)C3)nc2c(F)c(-c3cccc4cccc(Cl)c34)ncc12)[C@@H]1CCN(C(=O)/C=C/c2nc(C3(F)CCC3)no2)C1` [Example 208, (E)-1-((R)-3-((7-(8-chloronaphthalen-1-yl)-8-fluoro-2-(((2R,7aS)-2-fluorotetrahydro-1H-pyrrolizin-7a(5H)-yl)methoxy)pyrido[4,3-d]pyrimidin-4-yl)(methyl)amino)pyrrolidin-1-yl)-3-(3-(1-fluorocyclobutyl)-1,2,4-oxadiazol-5-yl)prop-2-en-1-one] and `C[C@H](F)c1noc(/C=C/C(=O)N2CC[C@@H](N(C)c3nc(OC[C@@]45CCCN4C[C@H](F)C5)nc4c(F)c(-c5cccc6cccc(Cl)c56)ncc34)C2)n1` [Example 77, (E)-1-((R)-3-((7-(8-chloronaphthalen-1-yl)-8-fluoro-2-(((2R,7aS)-2-fluorohexahydro-1H-pyrrolizin-7a-yl)methoxy)pyrido[4,3-d]pyrimidin-4-yl)(methyl)amino)pyrrolidin-1-yl)-3-(3-((S)-1-fluoroethyl)-1,2,4-oxadiazol-5-yl)prop-2-en-1-one] cannot be ordered by IC50: < 10 nM for the first, < 10 nM for the second.

`CN1CC(=CC(=O)N2CC[C@@H](N(C)c3nc(OC[C@@]45CCCN4C[C@H](F)C5)nc4c(F)c(-c5cccc6cccc(Cl)c56)ncc34)C2)C1` [Example 276, 1-((R)-3-((7-(8-chloronaphthalen-1-yl)-8-fluoro-2-(((2R,7aS)-2-fluorotetrahydro-1H-pyrrolizin-7a(5H)-yl)methoxy)pyrido[4,3-d]pyrimidin-4-yl)(methyl)amino)pyrrolidin-1-yl)-2-(1-methylazetidin-3-ylidene)ethan-1-one] and `CN(c1nc(OC[C@@]23CCCN2C[C@H](F)C3)nc2c(F)c(-c3cccc4cccc(Cl)c34)ncc12)[C@@H]1CCN(C(=O)C#C[C@@]2(C)CCCN2C)C1` [Example 197, 1-((R)-3-((7-(8-chloronaphthalen-1-yl)-8-fluoro-2-(((2R,7aS)-2-fluorohexahydro-1H-pyrrolizin-7a-yl)methoxy)pyrido[4,3-d]pyrimidin-4-yl)(methyl)amino)pyrrolidin-1-yl)-3-((R)-1,2-dimethylpyrrolidin-2-yl)prop-2-yn-1-one] fall in the same range of IC50: 10 to 100 nM for the first, 10 to 100 nM for the second.

First: CN(CC1CN(C(=O)/C=C/[C@@H]2CCN2C)C1)c1nc(OC[C@@]23CCCN2C[C@H](F)C3)nc2c(F)c(-c3cccc4cccc(Cl)c34)ncc12 [Example 218, (E)-1-(3-(((7-(8-chloronaphthalen-1-yl)-8-fluoro-2-(((2R,7aS)-2-fluorotetrahydro-1H-pyrrolizin-7a(5H)-yl)methoxy)pyrido[4,3-d]pyrimidin-4-yl)(methyl)amino)methyl)azetidin-1-yl)-3-((S)-1-methylazetidin-2-yl)prop-2-en-1-one]
Second: C=CC(=O)N1CC[C@@H](N(CC2CC2)c2nc(OC[C@@]34CCCN3C[C@H](F)C4)nc3c(F)c(-c4cccc5cccc(Cl)c45)ncc23)C1 [Example 250, 1-((R)-3-((7-(8-chloronaphthalen-1-yl)-8-fluoro-2-(((2R,7aS)-2-fluorohexahydro-1H-pyrrolizin-7a-yl)methoxy)pyrido[4,3-d]pyrimidin-4-yl)(cyclopropylmethyl)amino)pyrrolidin-1-yl)prop-2-en-1-one]
The IC50 of the first is lower: 10 to 100 nM for the first, 100 to 500 nM for the second.

Compared with `C=CC(=O)N1CC(CN(C)c2nc(OC[C@@]34CCCN3C[C@H](F)C4)nc3c(F)c(-c4cc(O)cc5cccc(Cl)c45)ncc23)C1` [Example 97, 1-(3-(((7-(8-chloro-3-hydroxynaphthalen-1-yl)-8-fluoro-2-(((2R,7aS)-2-fluorotetrahydro-1H-pyrrolizin-7a(5H)-yl)methoxy)pyrido[4,3-d]pyrimidin-4-yl)(methyl)amino)methyl)azetidin-1-yl)prop-2-en-1-one], `CC(C)N1CC[C@@H]1/C=C/C(=O)N1CC[C@@H](N(C)c2nc(OC[C@@]34CCCN3C[C@H](F)C4)nc3c(F)c(-c4cccc5ccc(F)c(Cl)c45)ncc23)C1` [Example 211, (E)-1-((R)-3-((7-(8-chloro-7-fluoronaphthalen-1-yl)-8-fluoro-2-(((2R,7aS)-2-fluorotetrahydro-1H-pyrrolizin-7a(5H)-yl)methoxy)pyrido[4,3-d]pyrimidin-4-yl)(methyl)amino)pyrrolidin-1-yl)-3-((R)-1-isopropylazetidin-2-yl)prop-2-en-1-one] is higher in IC50: < 10 nM for the first, 10 to 100 nM for the second. The first is the more potent here.

First: C=CC(=O)C1[C@H]2CCN(c3nc(OC[C@@H]4CCCN4C)nc4c3CCN(c3cccc5cccc(Cl)c35)C4)C[C@@H]12 (stereo in doubt) [Example 43]
Second: CN(c1nc(OCC23CCCN2CCC3)nc2c1CCN(c1cccc3cccc(Cl)c13)C2)[C@@H]1CCN(C#N)C1 [Example 39, (R)-3-((7-(8-chloronaphthalen-1-yl)-2-((tetrahydro-1H-pyrrolizin-7a(5H)-yl)methoxy)-5,6,7,8-tetrahydropyrido[3,4-d]pyrimidin-4-yl)(methyl)amino)pyrrolidine-1-carbonitrile]
The IC50 of the first is lower: 10 to 100 nM for the first, 100 to 500 nM for the second.

Work on `C#Cc1c(F)ccc2cccc(-c3ncc4c(N(C)[C@@H]5CCN(C(=O)/C=C/c6ccnc(C)n6)C5)nc(OC[C@@]56CCCN5C[C@H](F)C6)nc4c3F)c12` [Example 278, (E)-1-((R)-3-((7-(8-ethynyl-7-fluoronaphthalen-1-yl)-8-fluoro-2-(((2R,7aS)-2-fluorotetrahydro-1H-pyrrolizin-7a(5H)-yl)methoxy)pyrido[4,3-d]pyrimidin-4-yl)(methyl)amino)pyrrolidin-1-yl)-3-(2-methylpyrimidin-4-yl)prop-2-en-1-one] yielded an IC50 of 10 to 100 nM.

same assay, conditions: additional exemplary compounds; KRAS G12C and cRAF binding; read-out: RAF1 RBD IC50

`C=CC(=O)N1[C@H]2CC[C@@H]1[C@@H](N(C)c1nc(OC[C@@]34CCCN3C[C@H](F)C4)nc3c1CCN(c1cccc4cccc(Cl)c14)C3)C2` and `C=CC(=O)N1CC[C@H]2[C@H]1CCN2c1nc(OC[C@@]23CCCN2C[C@H](F)C3)nc2c1CCN(c1cccc3cccc(Cl)c13)C2` cannot be ordered by IC50: > 500 nM for the first, > 500 nM for the second.

`C=CC(=O)N1CCC(CNc2nc(OC[C@@]34CCCN3C[C@H](F)C4)nc3c(F)c(-c4cccc5cccc(Cl)c45)ncc23)C1` (stereo partly drawn) and `C=CC(=O)N1C[C@@H](O)[C@@H](Nc2nc(OC[C@@]34CCCN3C[C@H](F)C4)nc3c(F)c(-c4cccc5cccc(Cl)c45)ncc23)C1` cannot be ordered by IC50: > 500 nM for the first, > 500 nM for the second.

`C=CC(=O)N1C[C@H](N(C)c2nc(OCC34CCCN3CCC4)nc3c2CCN(c2cccc4cccc(Cl)c24)C3)C[C@H]1C` and `C=CC(=O)N1CC(N(C)c2nc(OCC34CCCN3CCC4)nc3c2CCN(c2cccc4cccc(Cl)c24)C3)C1` cannot be ordered by IC50: > 500 nM for the first, > 500 nM for the second.

First: C=CC(=O)N1CC[C@@H](N(C)c2nc(OC[C@@]34CCCN3C[C@H](F)C4)nc3c(F)c(-c4cccc5c(Cl)cc(F)cc45)ncc23)C1
Second: C=CC(=O)N1CC[C@@H](N(C)c2nc(OC[C@@]34CCCN3C[C@H](F)C4)nc3c(F)c(-c4cccc5ccc(F)c(Cl)c45)ncc23)C1
The IC50 of the first is higher: > 500 nM for the first, 10 to 100 nM for the second.

`C=CC(=O)N1C[C@H](C)C[C@@H](Nc2nc(OC[C@@]34CCCN3C[C@H](F)C4)nc3c(F)c(-c4cccc5cccc(Cl)c45)ncc23)C1` and `C=CC(=O)N1CC(CN(C)c2nc(OC[C@@]34CCCN3C[C@@H](F)C4)nc3c(F)c(-c4cccc5cccc(Cl)c45)ncc23)C1` cannot be ordered by IC50: > 500 nM for the first, > 500 nM for the second.

`C=CC(=O)N1CC(CN(C)c2nc(OC[C@@]34CCCN3C[C@H](O)C4)nc3c(F)c(-c4cccc5cccc(Cl)c45)ncc23)C1` and `C#Cc1c(F)ccc2cccc(-c3ncc4c(N(C)[C@H]5CCN(C(=O)C=C)C5)nc(OC[C@]56CCCN5C[C@H](F)C6)nc4c3F)c12` cannot be ordered by IC50: > 500 nM for the first, > 500 nM for the second.

First: C=CS(=O)(=O)C1CCCN(c2nc(OCC34CCCN3CCC4)nc3c2CCN(c2cccc4cccc(Cl)c24)C3)C1 (stereo not drawn)
Second: CN(CC1CN(C#N)C1)c1nc(OCC23CCCN2CCC3)nc2c1CCN(c1cccc3cccc(Cl)c13)C2
The IC50 of the first is lower: 10 to 100 nM for the first, 100 to 500 nM for the second. The first is the more potent here.

Compared with `Cc1cc(/C=C/C(=O)N2CCC[C@@H](N(C)c3nc(OC[C@@]45CCCN4C[C@H](F)C5)nc4c(F)c(-c5cccc6cccc(Cl)c56)ncc34)C2)nc(C)n1`, `CN(c1nc(OC[C@@]23CCCN2C[C@H](F)C3)nc2c(F)c(-c3cccc4ccc(F)c(Cl)c34)ncc12)[C@@H]1CCN(C(=O)/C=C/C2CNC2)C1` is lower in IC50: > 500 nM for the first, 100 to 500 nM for the second.

Compared with `CN(C)C/C=C/C(=O)N1CCC(N(C)c2nc(OC[C@@H]3CCCN3C)nc3c2CCN(c2cccc4cccc(Cl)c24)C3)C1` (stereo partly drawn), `CCN(CC)C/C=C/S(=O)(=O)CCN(C)c1nc(OC[C@@]23CCCN2C[C@H](F)C3)nc2c1CCN(c1cccc3cccc(Cl)c13)C2` is lower in IC50: 100 to 500 nM for the first, < 10 nM for the second.

`O=C(/C=C/CN1CCOCC1)N1CCCN(c2nc(OC[C@@]34CCCN3C[C@H](F)C4)nc3c(F)c(-c4cccc5cccc(Cl)c45)ncc23)CC1` and `N#CN1C2CCC1CN(c1nc(OC[C@@]34CCCN3C[C@H](F)C4)nc3c1CCN(c1cccc4cccc(Cl)c14)C3)C2` cannot be ordered by IC50: > 500 nM for the first, > 500 nM for the second.

From patent publication US20250019387A1 (Frontier Medicines Corporation, priority 0001, published 2025)
